In assay [1] the target is T1, HBO1 (Homo sapiens, UniProt O95251).
T1 construct: gene KAT7; HBO1 (336-611), acyltransferase/catalytic domain, purified from E. coli
As to the kind of experiment: isothermal titration calorimetry (supported by in vitro histone acetylation assay with purified HBO1). The format is binding.

The target in assay [2] is T1, HBO1. The experiment in a line: isothermal titration calorimetry (supported by in vitro histone lactylation assay with purified HBO1). The class given is binding.

SMILES strings stand for the structures.

T1 sequence (O95251 336-611): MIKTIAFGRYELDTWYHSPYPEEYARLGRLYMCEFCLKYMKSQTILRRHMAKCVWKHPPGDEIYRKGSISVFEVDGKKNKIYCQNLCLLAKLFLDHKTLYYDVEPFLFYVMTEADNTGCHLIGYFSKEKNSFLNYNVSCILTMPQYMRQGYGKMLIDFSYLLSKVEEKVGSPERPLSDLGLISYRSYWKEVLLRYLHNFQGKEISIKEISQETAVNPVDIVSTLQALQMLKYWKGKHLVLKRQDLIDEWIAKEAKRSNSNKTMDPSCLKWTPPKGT

With `CC(=O)SCCNC(=O)CCNC(=O)[C@H](O)C(C)(C)COP(=O)(O)OP(=O)(O)OC[C@H]1O[C@@H](n2cnc3c(N)ncnc32)[C@H](O)[C@@H]1OP(=O)(O)O` [acetyl-CoA], binding in assay [1] was put at a Kd of 1460 nM. In other words, the single-digit micromolar range.

For the compound `C[C@H](O)C(=O)SCCNC(=O)CCNC(=O)[C@H](O)C(C)(C)COP(=O)(O)OP(=O)(O)OC[C@H]1O[C@@H](n2cnc3c(N)ncnc32)[C@H](O)[C@@H]1OP(=O)(O)O` [lactyl-CoA], binding in assay [2] was put at a Kd of 520 nM.
